# Measurements: ChEMBL document CHEMBL3745698, “α-Aryl-N-aryl nitrones: Synthesis and screening of a new scaffold for cellular protection against an oxidative toxic stimulus” (Bioorg Med Chem, 2016)
# Calls of active or inactive are those of the source. The calls are words filed in the database; no cut-off is given here.
# What was measured:
# SH-SY5Y [1] = assay: Cytoprotective activity against H2O2-induced toxicity in human SH-SY5Y cells assessed as increase in cell viability at 1 uM preincubated for 24 hrs followed by H2O2 addition measured after 24 hrs by MTT assay relative to control; type: functional
# SH-SY5Y [2] = assay: Cytoprotective activity against H2O2-induced toxicity in human SH-SY5Y cells assessed as increase in cell viability at 1 uM preincubated for 24 hrs followed by H2O2 addition measured after 24 hrs by MTT assay relative to PBN; type: functional
# SH-SY5Y [3] = assay: Cytoprotective activity against H2O2-induced apoptosis in human SH-SY5Y cells assessed as dead cells at 1 uM preincubated for 24 hrs followed by H2O2 addition measured after 24 hrs by annexin V-FITC/propidium iodide staining-based flow cytometric analysis (reference value: 25.81 +/- 3.57%); type: functional
# SH-SY5Y [4] = assay: Cytoprotective activity against H2O2-induced apoptosis in human SH-SY5Y cells assessed as viable cells at 1 uM preincubated for 24 hrs followed by H2O2 addition measured after 24 hrs by annexin V-FITC/propidium iodide staining-based flow cytometric analysis (reference value: 71.08 +/- 2.34%); type: functional; settings: read-out: Activity
# SH-SY5Y [5] = assay: (§1) Cytoprotective activity against H2O2-induced apoptosis in human SH-SY5Y cells assessed as late apoptotic cells at 1 uM preincubated for 24 hrs followed by H2O2 addition measured after 24 hrs by annexin V-FITC/propidium iodide staining-based flow cytometric analysis (reference value: 2.78 +/- 0.53%); type: functional
# SH-SY5Y [6] = assay: Cytoprotective activity against H2O2-induced apoptosis in human SH-SY5Y cells assessed as early apoptotic cells at 1 uM preincubated for 24 hrs followed by H2O2 addition measured after 24 hrs by annexin V-FITC/propidium iodide staining-based flow cytometric analysis relative to control; type: functional
# SH-SY5Y [7] = assay: Cytoprotective activity against H2O2 stressed human SH-SY5Y cells assessed as increase in glutathione level at 1 uM preincubated for 24 hrs followed by H2O2 addition measured after 24 hrs by spectrophotometric analysis; type: functional
# SH-SY5Y [8] = assay: Toxicity in H2O2 stressed human SH-SY5Y cells assessed as effect on total glutathione level at 1 uM preincubated for 24 hrs followed by H2O2 addition measured after 24 hrs by spectrophotometric analysis; type: cell-based
# SH-SY5Y [9] = assay: Cytoprotective activity against H2O2-induced oxidative stress in human SH-SY5Y cells at 1 uM preincubated for 24 hrs followed by H2O2 addition measured after 24 hrs by DCFHDA dye-based flow cytometric analysis; type: functional, cell-based
# SH-SY5Y [10] = assay: Cytoprotective activity against H2O2-induced apoptosis in human SH-SY5Y cells assessed as early apoptotic cells at 100 nM preincubated for 24 hrs followed by H2O2 addition measured after 24 hrs by annexin V-FITC/propidium iodide staining-based flow cytometric analysis relative to control; type: functional
# SH-SY5Y [11] = assay: Cytoprotective activity against H2O2-induced apoptosis in human SH-SY5Y cells assessed as dead cells at 100 nM preincubated for 24 hrs followed by H2O2 addition measured after 24 hrs by annexin V-FITC/propidium iodide staining-based flow cytometric analysis (reference value: 25.81 +/- 3.57%); type: functional
# SH-SY5Y [12] = assay: as §1, with “100 nM” for “1 uM”; type: functional
smiles,measurement,setting,value
[O-]/[N+](=C\c1ccncc1)c1ccccc1,Activity,SH-SY5Y [1],71%
same,Activity,SH-SY5Y [2],42%
[O-]/[N+](=C\c1ccccc1)c1ccccc1,Activity,SH-SY5Y [3],3.78%
same,viability at 1 µM,SH-SY5Y [4],85%
same,Activity,SH-SY5Y [5],1.56%
same,Activity,SH-SY5Y [6],0%
same,Activity,SH-SY5Y [1],71%
same,Activity,SH-SY5Y [7],65%
same,Activity,SH-SY5Y [8],Non-toxic
same,Activity,SH-SY5Y [2],42%
same,Activity,SH-SY5Y [9],Active
[O-]/[N+](=C\c1ccc2c(c1)OCO2)c1ccc(Cl)cc1,Activity,SH-SY5Y [1],71%
same,Activity,SH-SY5Y [2],42%
Cc1ccc(/[N+]([O-])=C/c2ccccc2)cc1C,Activity,SH-SY5Y [3],9.13%
same,viability at 1 µM,SH-SY5Y [4],85%
same,Activity,SH-SY5Y [5],1.21%
same,Activity,SH-SY5Y [6],0%
same,Activity,SH-SY5Y [1],95%
same,Activity,SH-SY5Y [7],65%
same,Activity,SH-SY5Y [8],Non-toxic
same,Activity,SH-SY5Y [2],42%
same,Activity,SH-SY5Y [9],Active
[O-]/[N+](=C\c1ccncc1)c1ccc(Cl)cc1,Activity,SH-SY5Y [1],71%
same,Activity,SH-SY5Y [2],42%
CN[C@@H]1C[C@H]2O[C@@](C)([C@@H]1OC)n1c3ccccc3c3c4c(c5c6ccccc6n2c5c31)C(=O)NC4 [STAUROSPORINE],Activity,SH-SY5Y [10],2.63%
same,Activity,SH-SY5Y [11],6.19%
same,Activity,SH-SY5Y [12],14.49%
Cc1ccc(/[N+]([O-])=C/c2ccc3c(c2)OCO3)cc1C,Activity,SH-SY5Y [1],71%
same,Activity,SH-SY5Y [2],42%
CC(C)(C)/[N+]([O-])=C\c1ccccc1,Activity,SH-SY5Y [3],9.42%
same,Activity,SH-SY5Y [5],2.4%
same,Activity,SH-SY5Y [6],0.03%
same,Activity,SH-SY5Y [7],65%
same,Activity,SH-SY5Y [9],Active
[O-]/[N+](=C\c1ccccc1)c1ccc(Cl)cc1,Activity,SH-SY5Y [1],71%
same,Activity,SH-SY5Y [2],42%
[O-]/[N+](=C\c1ccc2c(c1)OCO2)c1ccccc1,Activity,SH-SY5Y [1],71%
same,Activity,SH-SY5Y [2],42%
Cc1ccc(/[N+]([O-])=C/c2ccncc2)cc1C,Activity,SH-SY5Y [1],71%
same,Activity,SH-SY5Y [2],42%
